Reference: US6288080A, “Magnesium quinolone antibiotics” (priority 1998, dated 2001)

Experiments:
[1] = Aqueous solubility of the quinolone and its crystal forms; assay type: physicochemical; conditions: for solubility of crystal form: depending upon the crystal form
From the text: The compounds disclosed in U.S. Pat. No. 5,563,155, ('155) are incorporated by reference here to fully disclose and enable this invention. The following compounds of the '155 patent are pointed out and particularly incorporated here. […] More particularly disclosed by incorporation by reference are those compounds of '155, in claim 1, where R2 is H and where R or R' is H. The quinolone where R2 is H and where R or R' is H can be combined with Mg2+ ions to produce a soluble complex having reduced injection site irritation. More preferred are the compounds of '155, in claim 1, where R2 is H and where R or R' is H, and where R3 is H and X is C--O--CH3. The esters of these compounds are also disclosed herein, the carboxy esters of 1-8 carbon groups are disclosed here, including all isomeric combinations (CH3, C2 H5, C3 H7, C4 H9, C5 H11, C6 H13, C7 H15, C8 H17 -- both straight and branched chains) and especially preferred are the carboxy esters of 1-4 carbon groups such as in U.S. Pat. No. 5,563,155, claim 1, where R2 is an alkyl of 1-4 carbon atoms or a cation. Even more preferred are the compounds of claim 2, most particularly the compound of claim 8 or 3R,1S-1-cyclopropyl-7-(3-(1-(methylamino)ethyl)-1-pyrrolidinyl)-6-fluoro-1,4-dihydro-8-methoxy-4-oxo-3-quinolinecarboxylic acid. […] Also, particular attention is directed to the descriptions in the specification of the '155 patent that correspond or are relevant to those claims and compounds described here.
The quinolones mentioned above can exist in different forms, the different forms having different solubilities. […] Even though it is the less soluble crystal form, Form III is very suitable as the quinolone that may be combined with Mg2+ in this invention. See, WO96/16055, incorporated by reference.
The compounds that may be made into solutions of this type are those compounds disclosed in Formula 1 and in U.S. Pat. No. 5,563,155, incorporated herein by reference and particularly 3R,1S-1-cyclopropyl-7-(3-(1-(methylamino)ethyl)-1-pyrrolidinyl)-6-fluoro-1,4-dihydro-8-methoxy-4-oxo-3-quinolinecarboxylic acid. […]

[2] = Serum depletion profile of 14C-quinolone with and without magnesium; assay type: in vivo, Holstein calves; conditions: single subcutaneous, approximately 10 mg/kg
Method: (§1) Experiment 7. The determination of preliminary residue depletion profile in calves following subcutaneous administration of 14C-quinolone with and without magnesium.
(§2) Formulations: Radiolabeled quinolone was combined with unlabeled quinolone to yield solutions containing quinolone at 50 mg/mL with a specific activity of 2.25 uCi/mg. Solution 1: 4.92 g of unlabeled quinolone and 11.26 mCi 14C-quinolone were dissolved in 0.16 M HCl, the solution was titrated to pH 4-5 with 1 M NaOH and diluted with deionized water to a final volume of 100 mL. Solution 2: 4.92 g of unlabeled quinolone and 11.26 mCi 14C-quinolone were dissolved in 0.24 M MgCl2 --6H2 O and diluted to 100 mL with deionized water.
(§3) Treatment Groups: Ten (male and female) Holstein calves approximately 50-85 kg were used. Each animal was injected with a single subcutaneous injection (approximately 0.2 mL dose solution/kg body weight). The dose level was approximately 10 mg/kg (22.5 uCi/kg) body weight. Whole blood samples (approximately 50 mL) were collected from each animal at 0.5, 1, 1.5, 2, 2.5, 3, 6, 12, 24, and 48 h after dosing or until euthanasia. Following euthanasia, fat, muscle, lung, kidney, liver and injection site tissue samples (approximately 500 g) were collected. Blood and tissue samples were combusted and drug residue determined by liquid scintillation counting.

[3] = Injection site reaction after subcutaneous injection in animals (general statement); assay type: in vivo; conditions: without Mg2+
From the text: Unfortunately these compounds also produce a severe adverse reaction at the injection site when injected subcutaneously in animals.

[4] = Total 14C-quinolone tissue residue depletion; assay type: in vivo, Holstein calves; conditions: for Total 14C-quinolone residues at injection site / Total 14C-quinolone residues in fat / Total 14C-quinolone residues in kidneys / Total 14C-quinolone residues in liver / Total 14C-quinolone residues in lungs / Total 14C-quinolone residues in muscle: 10 mg/kg
Method: as §1, §2, §3

CN[C@@H](C)[C@@H]1CCN(c2c(F)cc3c(=O)c(C(=O)O)cn(C4CC4)c3c2OC)C1 [Form 1, 3R,1S-1-cyclopropyl-7-(3-(1-(methylamino)ethyl)-1-pyrrolidinyl)-6-fluoro-1,4-dihydro-8-methoxy-4-oxo-3-quinolinecarboxylic acid]
solubility of crystal form [1]: about 10.8 mg/ml

CN[C@@H](C)[C@@H]1CCN(c2c(F)cc3c(=O)c(C(=O)O)cn(C4CC4)c3c2OC)C1 [Form 3, 3R,1S-1-cyclopropyl-7-(3-(1-(methylamino)ethyl)-1-pyrrolidinyl)-6-fluoro-1,4-dihydro-8-methoxy-4-oxo-3-quinolinecarboxylic acid]
solubility of crystal form [1]: about 2.2 mg/ml

CN[C@@H](C)[C@@H]1CCN(c2c(F)cc3c(=O)c(C(=O)O)cn(C4CC4)c3c2OC)C1 [QFB, [S-(R*,S*)]-1-Cyclopropyl-6-fluoro-1,4-dihydro-8-methoxy-7-[3-[1-(methylamino)ethyl]-1-pyrrolidinyl]-4-oxo-3-quinolinecarboxylic acid]
serum concentration at 1 hour ([2]; 1 hour): 30.4 µg/mL | serum concentration after 48 hours ([2]; 48 hours): 1.0 µg/mL | adverse reaction at injection site [3]: dramatic swelling, discoloration, internal and external lesions and even necrosis | estimated intrinsic solubility ([1]; 25° C.): about 2.2 mg/ml | Total 14C-quinolone residues at injection site ([4]; 3 hr): 10,482 μg/g | Total 14C-quinolone residues in fat ([4]; 3 hr): 45.4 µg/g | Total 14C-quinolone residues in kidneys ([4]; 3 hr): 353.2 µg/g | Total 14C-quinolone residues in liver ([4]; 3 hr): 215.5 µg/g | Total 14C-quinolone residues in lungs ([4]; 3 hr): 146.8 µg/g | Total 14C-quinolone residues in muscle ([4]; 3 hr): 50.1 µg/g | Total 14C-quinolone residues at injection site ([4]; 6 hr): 12,382 μg/g | Total 14C-quinolone residues in fat ([4]; 6 hr): 16.8 µg/g | Total 14C-quinolone residues in kidneys ([4]; 6 hr): 234.1 µg/g | Total 14C-quinolone residues in liver ([4]; 6 hr): 147.2 µg/g | Total 14C-quinolone residues in lungs ([4]; 6 hr): 96.6 µg/g | Total 14C-quinolone residues in muscle ([4]; 6 hr): 38.4 µg/g | Total 14C-quinolone residues at injection site ([4]; 12 hr): 1,737 μg/g | Total 14C-quinolone residues in fat ([4]; 12 hr): 7.8 µg/g | Total 14C-quinolone residues in kidneys ([4]; 12 hr): 121.3 µg/g | Total 14C-quinolone residues in liver ([4]; 12 hr): 110.9 µg/g | Total 14C-quinolone residues in lungs ([4]; 12 hr): 53.1 µg/g | Total 14C-quinolone residues in muscle ([4]; 12 hr): 24.3 µg/g | Total 14C-quinolone residues at injection site ([4]; 24 hr): 932.5 µg/g | Total 14C-quinolone residues in fat ([4]; 24 hr): 13.9 µg/g | Total 14C-quinolone residues in kidneys ([4]; 24 hr): 90.3 µg/g | Total 14C-quinolone residues in liver ([4]; 24 hr): 59.5 µg/g | Total 14C-quinolone residues in lungs ([4]; 24 hr): 27.6 µg/g | Total 14C-quinolone residues in muscle ([4]; 24 hr): 9.4 µg/g | Total 14C-quinolone residues at injection site ([4]; 48 hr): 225.7 µg/g | Total 14C-quinolone residues in fat ([4]; 48 hr): 1.7 µg/g | Total 14C-quinolone residues in kidneys ([4]; 48 hr): 15.0 µg/g | Total 14C-quinolone residues in liver ([4]; 48 hr): 13.4 µg/g | Total 14C-quinolone residues in lungs ([4]; 48 hr): 4.8 µg/g | Total 14C-quinolone residues in muscle ([4]; 48 hr): 1.4 µg/g | injection site concentration of QFB ([4]; single subcutaneous, approximately 10 mg/kg): 10,480 ug/g
